From patent US20260035385A1, “BENZO NITROGEN-CONTAINING HETEROAROMATIC RING DERIVATIVE AND USE THEREOF IN MEDICINE” (Xizang Haisco Pharmaceutical Co., Ltd., priority 2021, published 2026) come the findings set out here.

For one series, the target named is FB (Homo sapiens, UniProt P00751). Description: biochemical.
For a further series, the system named is C3a levels in mice. Description: Biological Test Example 4: LPS mouse model, plasma C3a level. It counts as in vivo. As to conditions: compound given 3.5 h after LPS, plasma at 7.5 h. As to the method: Mice were intravenously given 0.5 mg/ml LPS solution at 100 μL/mouse to create a model, and the naive group was given physiological saline. Mice were given the compounds 3.5 h after injection of physiological saline/LPS solution, and the naive group and model group were given vehicle (0.5% MC+0.5% Tween 80). 7.5 h after the mice in each group were injected with physiological saline/LPS, blood was collected from the orbit and the plasma was separated. The plasma C3a level was detected using mouse C3a ELISA kit (NOVUS/NBP2-70037), and the inhibition rate of C3a was calculated. The formula is as follows: […]
Among them: Ct, C3a level after administration; Cnaive, C3a level of naive group; Cmodel, C3a level of model group.

In series [1] the test system is complement alternative pathway. Description: Biological Test Example 2: complement alternative pathway inhibition, IBL alternative pathway kit, serum from healthy volunteers. It counts as biochemical, human. Particulars: LPS-coated plate, 37 °C 1 h, read-out: IC50 for inhibiting alternative pathway. As to the method:
The inhibitory effect of the compounds on the complement alternative pathway was detected using the IBL alternative pathway kit (COMPL AP330 RUO). Serum from healthy volunteers was collected and 1 portion was diluted with a buffer of 20 mM EDTA in gelatin (0.15 mM CaCl2, 141 mM NaCl, 4.5 mM MgCl2, 4.2 mM HEPES, and 0.1% gelatin at pH 7.4) to 50% (v/v), and 1 portion was diluted to 50% (v/v) with a buffer of 20 mM EGTA in gelatin. The compounds were prepared in DMSO to a working solution 100 times the final concentration. Before use, 50% of the above serum was diluted 1/18 with the AP diluent in the kit. 1 part of the compound working solution (v/v) or DMSO (positive control PC) was added to 99 parts of the diluted serum containing EGTA for pretreatment for 30 min, and 1 part of DMSO (v/v) was added to 99 parts of the diluted serum containing EDTA, as negative control (NC). The serum pretreated with the above compounds (or DMSO) was added at […] to the LPS-coated 96-well plate, incubated at 37° C. for 1 h, and the plate was washed 3 times with washing solution in the kit; the conjugated chromogenic substrate was added according to the instruction in the kit, and the absorbance was read at 405 nm with a microplate reader. The inhibitory activity of the compounds on alternative pathway was calculated using the following formula.
OD^CPD was the OD value when the inhibitor was added, OD^NC was the OD value of the negative control, and OD^PC was the OD value of the positive control.
Graphpad was used to perform nonlinear regression on the final concentrations and inhibition rates of the compounds to obtain the IC50 of the compounds for inhibiting the alternative pathway.

Series [2] in a line: Stability in liver microsome (DLM). It counts as in vitro ADME, dog. Particulars: 0.50 mg/mL microsomal protein, 1.00 μM, NADPH, 37 °C. The method, then:
(§1) The total volume of the incubation system was 100 μL, the medium was 100 mM phosphate buffer (PBS, pH 7.4), including liver microsomal protein with a final concentration of 0.50 mg/mL, 1.00 μM test substance and 1.00 mM NADPH, 37° C. water bath was used for incubation, and 300 μL of ice-cold acetonitrile containing internal standard was added to terminate the reaction after 0, 5, 10, 20, 30, and 60 min of reaction, respectively. The negative control was incubated with heat-inactivated liver microsomes of the corresponding species, and the incubation time points were 0 and 60 min respectively. The LC/MS/MS method was used to detect the concentration of the test substance in the sample and the remaining rate of the compound was calculated.
In general terms: Liver microsomes are vesicles of endoplasmic reticulum, rich in cytochrome P450 enzymes.

Series [3] is described as follows: Stability in liver microsome (CLM). Particulars: 0.50 mg/mL microsomal protein, 1.00 μM, NADPH, 37 °C. The class given is in vitro ADME, cynomolgus monkey. As to the method:
as §1

In another series the test system is Caco-2 cells. The experiment in a line: Caco2 permeability test. It counts as in vitro ADME. Particulars: Caco2, compared with the trifluoroacetate of LNP023, in words. As to the method:
(§2) The experiment used a monolayer of Caco-2 cells incubated in triplicate in a 96-well Transwell plate. […] Acetonitrile containing internal standard was then added to precipitate the protein. […] The integrity of the cell monolayer after 2 h of incubation was assessed by leakage of Lucifer Yellow.
Background: Caco-2 monolayers are a common model of the intestinal barrier.

A short description of the next series: Caco2 permeability test. It counts as in vitro ADME. Particulars: human; Caco-2 monolayer, 2 μM, 2 h, pH 7.4. The method, then: as §2
Series [4] is described as follows: Pharmacokinetic test of dogs. Particulars: male, beagle, dog, plasma, po, i.g. (5 mg/kg). The class given is in vivo. As to the method:
Test objective: In this experiment, a single dose of test compounds was administered to beagle dogs intravenously and intragastrically, and the concentrations of the test compounds in plasma of the beagle dogs were measured to evaluate pharmacokinetic characteristics of the test compounds in the beagle dogs.
Experimental animals: Male beagle dogs, 8-11 kg, 1-3 years old, 6 dogs/compound. purchased from Beijing Marshall Biotechnology Co. Ltd.
Experimental method: on the day of the test, 6 beagle dogs were randomly grouped according to their body weights. The animals were fasted with water available for 14 to 18 hours one day before the administration of a test compound, and were fed 4 hours after the administration.
Sampling: Before and after the administration, 1.0 mL of blood was taken from the jugular veins or limb veins, and placed in an EDTAK2 centrifuge tube. Centrifugation was carried out at 5000 rpm at 4° C. for 10 min, and the plasma was collected.
(§3) Time points for plasma collection in IV&PO group: 0, 5 min, 15 min, 30 min, 1 h, 2 h, 4 h, 6 h, 8h, 10 h, 12h, and 24 h.
(§4) Before analysis and detection, all samples were stored at −60° C. The samples were analyzed quantitatively by LC-MS/MS.

The nature of series [5]: Pharmacokinetic experiment in monkeys. It counts as in vivo, cynomolgus monkeys. Particulars: compared with the trifluoroacetate of LNP023, in words. The method, then:
Test objective: In this experiment, a single dose of test compounds was administered to cynomolgus monkeys intravenously and intragastrically, and the concentrations of the test compounds in plasma of the monkeys were measured to evaluate pharmacokinetic characteristics of the test compounds in the monkeys.
Experimental animals: Male cynomolgus monkeys, 3-5 kg, 3-6 years old, 6 monkeys/compound. Purchased from Suzhou Xishan Biotechnology Inc.
Experimental method: on the day of the test, 6 monkeys were randomly grouped according to their body weights. The animals were fasted with water available for 14 to 18 hours one day before the administration of a test compound, and were fed 4 hours after the administration.
Sampling: before and after the administration, 1.0 mL of blood was taken from the limb veins, and placed in an EDTAK2 centrifuge tube. Centrifugation was carried out at 5000 rpm at 4° C. for 10 min, and the plasma was collected.
as §3, §4

Series [6] can be described thus: Stability in liver microsome (HLM). The class given is in vitro ADME, human. Particulars: 0.50 mg/mL microsomal protein, 1.00 μM, NADPH, 37 °C. The method, then:
as §1

The nature of series [7]: Pharmacokinetic test in mice. Particulars: male, C57, mouse, plasma, po, i.g. (10 mg/kg). It counts as in vivo. As to the method:
Test objective: In this experiment, a single dose of test compounds was administered to C57 mice intravenously and intragastrically, the concentrations of the test compounds in plasma of mice were measured, and the pharmacokinetic characteristics of the test compounds in mice were evaluated.
Experimental animals: Male C57 mice, 20-25 g, 6-8 weeks old, 18 mice/compound. purchased from Chengdu Ddossy Experimental Animals Co., Ltd.
Experimental method: On the day of the experiment, 18 C57 mice were randomly grouped according to their body weight. The animals were fasted with water available for 12 to 14 hours one day before the administration of a test compound, and were fed 4 hours after the administration.
Sampling: Before and after the administration, 0.08 mL of blood sample was drawn from the orbit under isoflurane anesthesia, and placed in an EDTAK2 centrifuge tube. Centrifugation was carried out at 5000 rpm at 4° C. for 10 min, and the plasma was collected.
Time points for plasma collection in IV&PO group: 0, 5 min, 15 min, 30 min, 1 h, 2 h, 4 h, 6 h, 8h, and 24 h.
as §4

The nature of series [8]: Stability in liver microsome (RLM). The class given is in vitro ADME, rat. Particulars: 0.50 mg/mL microsomal protein, 1.00 μM, NADPH, 37 °C. As to the method: as §1
Series [9] in a line: Stability in liver microsome (MouLM). It counts as in vitro ADME, mouse. Particulars: 0.50 mg/mL microsomal protein, 1.00 μM, NADPH, 37 °C. As to the method:
as §1

Chain of FB (P00751 260-764 limits assumed): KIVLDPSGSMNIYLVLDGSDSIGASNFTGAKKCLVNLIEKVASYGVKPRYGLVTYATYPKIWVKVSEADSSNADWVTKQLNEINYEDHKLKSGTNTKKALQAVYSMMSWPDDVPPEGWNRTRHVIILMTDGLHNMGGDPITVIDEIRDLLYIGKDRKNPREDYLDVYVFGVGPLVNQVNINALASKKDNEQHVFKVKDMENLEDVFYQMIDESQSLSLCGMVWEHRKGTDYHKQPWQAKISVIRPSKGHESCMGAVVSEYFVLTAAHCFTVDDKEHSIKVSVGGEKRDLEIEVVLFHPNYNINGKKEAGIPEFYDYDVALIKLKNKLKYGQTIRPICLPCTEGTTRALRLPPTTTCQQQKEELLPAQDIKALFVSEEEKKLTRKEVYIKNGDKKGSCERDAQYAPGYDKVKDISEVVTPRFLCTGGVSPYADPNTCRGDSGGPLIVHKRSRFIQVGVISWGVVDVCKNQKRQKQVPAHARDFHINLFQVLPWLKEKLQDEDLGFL
Chain of FB (Q91132 23-649 partner limits assumed): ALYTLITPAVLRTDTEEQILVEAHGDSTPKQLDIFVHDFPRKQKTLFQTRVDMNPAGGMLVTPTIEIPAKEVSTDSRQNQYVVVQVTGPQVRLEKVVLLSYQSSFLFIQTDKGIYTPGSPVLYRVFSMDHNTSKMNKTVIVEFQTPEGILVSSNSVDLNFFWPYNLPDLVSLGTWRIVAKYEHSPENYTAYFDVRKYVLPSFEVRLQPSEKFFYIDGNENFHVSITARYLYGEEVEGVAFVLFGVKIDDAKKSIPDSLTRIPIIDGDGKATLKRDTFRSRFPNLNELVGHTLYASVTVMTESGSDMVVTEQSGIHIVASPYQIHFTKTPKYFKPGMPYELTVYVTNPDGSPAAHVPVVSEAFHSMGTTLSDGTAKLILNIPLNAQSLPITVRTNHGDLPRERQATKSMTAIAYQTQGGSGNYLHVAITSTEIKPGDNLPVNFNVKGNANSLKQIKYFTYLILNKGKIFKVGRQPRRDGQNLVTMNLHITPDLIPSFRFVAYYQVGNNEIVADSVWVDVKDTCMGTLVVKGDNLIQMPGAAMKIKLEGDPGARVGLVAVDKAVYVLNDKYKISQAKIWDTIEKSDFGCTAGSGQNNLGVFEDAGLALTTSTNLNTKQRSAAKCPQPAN
Chain of FB (Q91132 733-984 partner limits assumed): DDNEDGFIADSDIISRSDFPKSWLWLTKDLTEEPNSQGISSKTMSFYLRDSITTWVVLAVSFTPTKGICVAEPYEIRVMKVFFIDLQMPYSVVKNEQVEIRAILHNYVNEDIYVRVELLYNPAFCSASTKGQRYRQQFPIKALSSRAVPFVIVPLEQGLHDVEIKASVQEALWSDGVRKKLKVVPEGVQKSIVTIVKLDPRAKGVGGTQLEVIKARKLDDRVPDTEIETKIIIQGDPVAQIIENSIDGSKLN
Chain of FB (Q91132 1264-1642 partner limits assumed): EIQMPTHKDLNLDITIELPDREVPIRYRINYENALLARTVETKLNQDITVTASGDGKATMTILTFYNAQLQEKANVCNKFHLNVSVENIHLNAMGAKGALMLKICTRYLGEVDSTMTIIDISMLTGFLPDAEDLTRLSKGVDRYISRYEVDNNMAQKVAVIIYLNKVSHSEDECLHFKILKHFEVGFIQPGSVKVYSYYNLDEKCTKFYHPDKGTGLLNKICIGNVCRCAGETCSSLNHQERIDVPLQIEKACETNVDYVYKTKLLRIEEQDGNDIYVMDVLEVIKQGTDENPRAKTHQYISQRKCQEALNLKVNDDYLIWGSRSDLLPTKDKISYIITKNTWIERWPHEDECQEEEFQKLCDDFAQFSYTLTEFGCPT
Method for FB: CVF (1 μM), FB (1 μM) and FD (300 nM) were incubated in Assay buffer (pH=7.4, 10 mM MgCl2, 0.05% (m/v), CHAPS) for 3 h at room temperature, so that all FB was cleaved into Baby FD and CVF:Bb complex was generated. SDS-PAGE analysis confirmed that FB was completely hydrolyzed, that is, the concentration of the generated CVF:Bb complex was 300 nM. The CVF:Bb complex was diluted to a concentration of 5 nM using Assay buffer and preincubated with different concentrations of the compounds in assay buffer for 1 h at room temperature. C3 was added to a final concentration of 1 μM to start the enzymatic reaction. After reacting at room temperature for 1 h, protease inhibitor mixture (Roche Complete Inhibitor Tablets) was added to stop the enzyme reaction. Human C3a ELISA kit (Hycult HK354-01) was used to determine the generation of C3a according to the instruction in the kit. The FB activity inhibition rate was plotted against the inhibitor concentration, and graphpad nonlinear regression was used to calculate the IC50 value.

By IC50 is commonly meant the midpoint of a concentration-inhibition curve. `COc1cc(C)c2[nH]ccc2c1CN1CCC2(CCCO2)C[C@H]1c1ccc(C(=O)O)cc1` (single isomer, unassigned) [Trifluoroacetate of compound 2-b (diastereomer 2)]: the IC50 at FB is less than 500 nM; in [1], less than 200 nM. Further, the “Inhibition rate of C3a levels in mice” value is reported as 35.04% in the series with C3a levels in mice (Dosage 30 mg/kg) and 73.12% in the series with C3a levels in mice (Dosage 60 mg/kg).

For `COc1cc(C)c2[nH]ccc2c1CN1CC[C@H](OCC2CC2)C[C@H]1c1ccc(C(=O)O)cc1` [Compound 4, 4-((2S,4S)-4-(cyclopropylmethoxy)-1-((5-methoxy-7-methyl-1H-indol-4-yl)methyl)piperidin-2-yl)benzoic acid], the 50% inhibitory concentration (IC50) is less than 500 nM against FB and less than 200 nM in series [1].

A word on the Papp A→B: it is the apparent permeability from the apical to the basolateral side of a cell layer. In general, Papp B→A refers to how fast a substance crosses the layer from the basolateral side. As usually defined, the bioavailability is dose-corrected exposure relative to a reference, in per cent. As a reminder, the AUC(0-t) is exposure summed from dosing to a finite time, without extrapolation to infinity. The low end stands for less exposure, the high end for more exposure. As usually defined, the half-life is the time needed for the level to fall by half in the phase considered. As for `COc1cc(C)c2[nH]ccc2c1CN1CC[C@@H](C2CC2)C[C@H]1c1ccc(C(=O)O)cc1` [Trifluoroacetate of compound 5 (diastereomer 1), 4-((2S)-4-cyclopropyl-1-((5-methoxy-7-methyl-1H-indol-4-yl)methyl)piperidin-2-yl)benzoic acid], the “Remaining % (T = 60 min) DLM0.5” value in series [2] was greater than 90%. The “Remaining % (T = 60 min) CLM0.5” value in [3] was greater than 90%. For the same compound, the permeability entry in the series with Caco-2 cells is listed as “better”. In the series “Caco2 permeability test”, this compound yielded a Papp A→B at 2 h, 2 μM of 2.17 ×10⁻⁶ cm/s and a Papp B→A at 2 h, 2 μM of 23.9 ×10⁻⁶ cm/s. In series [4], this compound gave a bioavailability of 62.6%, an AUC(0-t) of 49300 ng·h/mL and a half-life of 20.9 h. Besides, in series [5], the bioavailability in monkeys result is “higher” and the “oral exposure in monkeys” value is “higher”. Besides, the “Remaining % (T = 60 min) HLM0.5” value in series [6] was greater than 90%. In series [7], this compound showed a bioavailability of 81.5% and an exposure AUC(0-t) of 15900 ng·h/mL. For the same compound, the “Remaining % (T = 60 min) RLM0.5” value in series [8] is greater than 90%. Moreover, the “Remaining % (T = 60 min) MouLM0.5” value in series [9] was greater than 90%. For the same compound, the IC50 in series [1] was less than 200 nM.
